Experimental data reported in ChEMBL document CHEMBL5241055, “Angel or Devil ? - CDK8 as the new drug target” (Eur J Med Chem, 2021).
pIC50, pKd: −log10 of the molar value.

How the values were obtained:
Heat shock protein HSP90 = Heat shock protein HSP90 (Homo sapiens, UniProt P07900+P08238); experiment: Inhibition of HSP90 (unknown origin); format: protein assay
CDK8/Cyclin C = CDK8/Cyclin C (Homo sapiens, UniProt P49336); experiment: Inhibition of CDK8/Cyclin C (unknown origin) using RBER-IRStide as substrate by radiometric assay; format: protein-complex assay
[1] = Antiproliferative activity against HUVEC cells assessed as inhibition of cell growth; format: toxicity, cell-based; conditions: human
[2] = molecular target: T1, Cyclin-dependent kinase 8 (Homo sapiens, UniProt P49336); experiment: Inhibition of CDK8 (unknown origin)
HCT-116 = experiment: Anticancer activity against human HCT-116 cells assessed as inhibition of cell growth by SRB assay; format: functional, cell-based
[3] = molecular target: T1, Cyclin-dependent kinase 8; experiment: Binding affinity to CDK8 (unknown origin)

Chain of CDK8/Cyclin C (P49336 whole entry): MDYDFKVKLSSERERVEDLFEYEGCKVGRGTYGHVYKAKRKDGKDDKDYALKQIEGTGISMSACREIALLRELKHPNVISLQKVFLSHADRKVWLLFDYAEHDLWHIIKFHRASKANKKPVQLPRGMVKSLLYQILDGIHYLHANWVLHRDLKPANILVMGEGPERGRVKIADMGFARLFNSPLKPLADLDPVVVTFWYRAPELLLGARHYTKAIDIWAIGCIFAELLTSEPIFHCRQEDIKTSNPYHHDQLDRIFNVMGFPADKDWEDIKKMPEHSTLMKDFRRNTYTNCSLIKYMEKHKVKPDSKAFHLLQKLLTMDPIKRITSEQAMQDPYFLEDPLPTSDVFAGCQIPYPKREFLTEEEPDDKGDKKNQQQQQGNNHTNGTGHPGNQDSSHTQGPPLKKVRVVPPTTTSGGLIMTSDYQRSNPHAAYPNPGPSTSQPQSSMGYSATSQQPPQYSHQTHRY
Chain of CDK8/Cyclin C (P24863 whole entry, further chain): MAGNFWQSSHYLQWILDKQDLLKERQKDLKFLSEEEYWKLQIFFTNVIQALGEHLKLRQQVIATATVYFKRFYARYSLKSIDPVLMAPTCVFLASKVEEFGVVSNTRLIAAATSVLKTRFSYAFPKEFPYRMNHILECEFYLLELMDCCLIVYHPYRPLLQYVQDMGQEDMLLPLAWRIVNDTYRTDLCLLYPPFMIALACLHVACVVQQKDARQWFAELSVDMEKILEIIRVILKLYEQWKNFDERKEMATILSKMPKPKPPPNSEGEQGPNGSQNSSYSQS
T1 sequence (P49336 whole entry): as the sequence (P49336 whole entry) above

Compound | pIC50 [1] | further results
CNC(=O)c1ccc2[nH]nc(Cc3ccc4c(cnn4C)c3)c2c1 | – | IC50 (Heat shock protein HSP90): > 10000 nM
N#Cc1ccc2ncnc(NCCc3ccccc3)c2c1 | – | pIC50 (CDK8/Cyclin C): 6.19
CCCNc1ncnc2ccc(Br)cc12 | – | pIC50 (CDK8/Cyclin C): 5.21
Cc1cnccc1/C=C/[C@@H](C)[C@H]1CC[C@@H]2[C@]1(C)CCC1=CC3=CC[C@@H](N(C)C)C[C@]34CC[C@@]12O4 | 6.10 | –
CN(C)[C@@H]1C=CC2=CC3=CC[C@]4(C)[C@@H](c5ccc6ccncc6c5)CC[C@H]4[C@@]34CC[C@]2(C1)O4 | 8.10 | –
CC1CN(C)CCC1CCC(C)[C@H]1CC[C@@H]2[C@]1(C)CC=C1C=C3C=C[C@@H](N(C)C)C[C@]34CC[C@@]12O4 (stereo partly specified) | 5.72 | –
Cc1cccc(Cc2n[nH]c3cc(O)c(C(=O)N4Cc5ccccc5C4)cc23)c1 | – | IC50 (Heat shock protein HSP90): 110 nM; pIC50 [2]: 7.82
CN(C)[C@H]1C[C@@]23CC[C@@]4(O2)C(=CC[C@@]2(C)[C@H]4CC(=O)[C@]2(O)c2ccc4ccncc4c2)C=C3[C@@H](O)[C@@H]1O | 6.82 | –
N#Cc1ccc2ncnc(NCCc3ccc4ccccc4c3)c2c1 | – | pIC50 (CDK8/Cyclin C): 6.13
Cc1cnccc1CC[C@@H](C)[C@H]1CC[C@@H]2[C@]1(C)CCC1=CC3=CC[C@@H](N(C)C)C[C@]34CC[C@@]12O4 | 6.46 | –
CN(C)[C@H]1C[C@@]23CC[C@@]4(O2)C(=CC[C@@]2(C)[C@H]4C[C@H](O)[C@@H]2c2ccc4ccncc4c2)C=C3[C@@H](O)[C@@H]1O | 5.96 | –
COc1ccc(/C=N/c2ncc(-c3cc4ccccc4oc3=O)o2)cc1O | – | pIC50 (HCT-116): 4.14
Cc1ccc(-n2nc(C(C)(C)C)cc2NC(N)=O)cc1 | – | pKd [3]: 5.49
CC1CN(C)CCC1CC[C@@H](C)[C@H]1CC[C@@H]2[C@]1(C)CCC1=CC3=CC[C@@H](N(C)C)C[C@]34CC[C@@]12O4 (stereo partly specified) | 6.35 | –
CN(C)[C@H]1C[C@@]23CC[C@@]4(O2)C(=CC[C@]2(C)[C@@H](c5ccc6ccncc6c5)C(=O)C[C@H]24)C=C3[C@@H](O)[C@@H]1O | 7.72 | –
